Like-named read-outs stand apart in the source and are kept apart here. Marks after values point to notes of the source that are not given here.

The subject of data set [1] is Phytophthora infestans. The data set is classed as in vivo. The conditions noted are these: tomato plants, preventive spray, 500 ppm of active ingredient, evaluated 7 days after inoculation; 0% = untreated control, 100% = no disease.
Data set [2] has as its system Plasmopara viticola. Nature of the data set: Plasmopara test (grapevines) / preventive. To be noted: grapevine plants, preventive spray, 100 ppm of active ingredient, evaluated 6 days after inoculation; 0% = untreated control, 100% = no disease. The data set is classed as in vivo. As for the experimental part:
Solvent: 24.5 parts by weight of acetone • 24.5 parts by weight of dimethylacetamide
Emulsifier: 1 part by weight of alkylaryl polyglycol ether
To produce a suitable preparation of active compound, 1 part by weight of active compound is mixed with the stated amounts of solvent and emulsifier, and the concentrate is diluted with water to the desired concentration. To test for preventive activity, young plants are sprayed with the preparation of active compound at the stated rate of application. After the spray coating has dried on, the plants are inoculated with an aqueous spore suspension of Plasmopara viticola and then remain for 1 day in an incubation cabinet at approximately 20° C. and a relative atmospheric humidity of 100%. The plant is subsequently placed for 4 days in a greenhouse at approximately 21° C. and a relative atmospheric humidity of approximately 90%. The plants are then misted and placed for 1 day in an incubation cabinet. The test is evaluated 6 days after the inoculation. 0% means an efficacy which corresponds to that of the untreated control, while an efficacy of 100% means that no disease is observed.

In the case of `CC(C)C(C)NC(=C(C#N)C(=O)CC1CC1)c1cccnc1Cl` (stereo not shown) [Compound 11], where the note is “pH 2.7”, the LogP was 3.55^[a]. The efficacy in data set [1] was determined as 100%; in data set [2], 82%.
As to `CC(NC(=C(C#N)C(=O)CC1CC1)c1cn(C)nc1C(F)F)c1nccs1` (stereo not shown) [Compound 81], the LogP (pH 2.7) is 2.59^[a]. Further, the efficacy in data set [1] is listed as 95%; in data set [2] it was 92%.
Regarding `CC(C)C(C)NC(=C(C#N)C(=O)CC1CC1)c1cn(C)nc1C(F)F` (stereo not shown) [Compound 4], where the note is “pH 2.7”, the LogP was 3.27^[a]. Further, the values for the efficacy in data set [1] and in data set [2] were 95% and 94%, respectively.
`CCCC(=O)C(C#N)=C(NC(C)C(C)C)c1ccc(Cl)nc1Cl` (stereo not shown) [Compound 90]: the LogP (pH 2.7) is 4.31^[a]. Also, the figures for the efficacy in data set [1] and in data set [2] were 97% and 96%, respectively.
As to `COCC(=O)C(C#N)=C(NC(C)C(C)C)c1cn(C)nc1C(F)F` (stereo not shown) [Compound 56], under “pH 2.7”, the LogP is 2.42^[a]. Besides, the figures for the efficacy in data set [1] and in data set [2] were 95% and 78%, respectively.
As to `CCC(=O)C(C#N)=C(NC(C)C(C)C)c1cccnc1Cl` (stereo not shown) [Compound 5], the LogP was 3.11^[a] (pH 2.7) and 3.09^[b] (pH 7.5). The efficacy is reported as 100% in data set [1] and 93% in data set [2].
For `CC(NC(=C(C#N)C(=O)CC1CC1)c1cn(C)nc1C(F)F)C1CC1` (stereo not shown) [Compound 64], the LogP (pH 2.7) is 3.04^[a]. Moreover, the efficacy in data set [1] was determined as 98%; in data set [2] it was 94%.
For `CCCC(=O)C(C#N)=C(NC(C)C(C)C)c1cn(C)nc1C(F)F` (stereo not shown) [Compound 51] the same measures were 3.29^[a], 95% and 100%.
On to `CCCC(=O)C(C#N)=C(NC(C)COC)c1cn(C)nc1C(F)F` (stereo not shown) [Compound 30], for which, for the setting “pH 2.7”, the LogP is 2.54^[a]. Also, the efficacy is on record as 100% in data set [1] and 94% in data set [2].
For `CCCC(=O)C(C#N)=C(NC(C)c1nccs1)c1cn(C)nc1C(F)F` (stereo not shown) [Compound 80] the same measures were 2.59^[a], 95% and 94%.
Regarding `CC=CC(=O)C(C#N)=C(NC(C)C(C)C)c1cccnc1Cl` (stereo not shown) [Compound 75], the LogP (pH 2.7) was 3.35^[a]. Besides, the efficacy is recorded as 90% in data set [1] and 88% in data set [2].
As for `CCCC(=O)C(C#N)=C(NC(C)C1(Cl)CC1)c1cccnc1Cl` (stereo not shown) [Compound 33], the LogP (pH 2.7) was 3.44^[a]. Moreover, the values for the efficacy in data set [1] and in data set [2] were 90% and 93%, respectively.
`CC(NC(=C(C#N)C(=O)CC1CC1)c1cccnc1Cl)C1(Cl)CC1` (racemic) [Compound 27]: for the setting “pH 2.7”, the LogP is 3.39^[a]. The efficacy in data set [1] was found to be 93%; in data set [2], 95%.
For `CCCC(=O)C(C#N)=C(NC(C)C(C)(C)C)c1cn(C)nc1C(F)F` (stereo not shown) [Compound 84] the same measures were 3.55^[a], 100% and 89%.
For `COCC(C)NC(=C(C#N)C(=O)CC1CC1)c1cn(C)nc1C(F)F` (stereo not shown) [Compound 2] the same measures were 2.54^[a], 100% and 94%.
Regarding `CCCC(=O)C(C#N)=C(NC(C)c1ncc(C)s1)c1cccnc1Cl` (racemic) [Compound 107], the LogP (pH 2.7) is 3.19^[a]. Besides, the efficacy was 95% in data set [1] and 100% in data set [2].
Taken in the same sequence, the figures for `CCCC(=O)C(C#N)=C(NC(C)COC)c1ccnn1C(F)F` (stereo not shown) [Compound 98] were 2.73^[a], 100% and 94%.
`CCCC(=O)C(C#N)=C(NC(C)c1ccsn1)c1cn(C)nc1C(F)F` (stereo not shown) [Compound 88]: where the note is “pH 2.7”, the LogP is 2.73^[a]. Also, the efficacy in data set [1] stood at 97%; in data set [2] it was 100%.
With `CCCC(=O)C(C#N)=C(NC(C)C(C)C)c1cccnc1Cl` (stereo not shown) [Compound 20], the LogP (pH 2.7) is 3.69^[a]. In addition, the efficacy in data set [1] is 100%; in data set [2], 87%.

(Values after US9474275B2, “Cyanoenamines and their use as fungicides” (priority 2010, dated 2016).)
